Results from US7943646B2, “Benzamidine derivative, process for the preparation thereof and pharmaceutical composition comprising same” (Dong Wha Pharmaceutical Co., Ltd., priority 2006, dated 2011).

What was measured:
[1] = tested on: osteoclast differentiation; assay: Inhibitory effect on osteoclast differentiation, co-culture of bone marrow cells and osteoblast, TRAP staining; assay type: cell-based, mouse; settings: 1 μm, 7 days co-culture, TRAP-positive osteoclasts with 3 or more nuclei, relative to negative controls; for inhibition at 1 µM: Mus musculus, Osteoclast, 168 h, read-out: inhibitory effect on osteoclast differentiation(%)
Description: The effect of the benzamidine derivative of the present invention on osteoclast formation and differentiation process was evaluated via co-culture with an osteoblast.
Tibia was aseptically ectomized from male 6 to 8-week-old ddY mice to harvest bone marrow cells by using a syringe (21G, Korea Green Cross). The bone marrow cells were suspended in 5 mL of an α-MEM medium (Gibco BRL Co., added with sodium bicarbonate (2.0 g/L), streptomycin (100 mg/L) and penicillin ([…]), filtered and then sterilized). The harvested cells were centrifuged at 600×g for 5 mins to collect the whole quantity. To remove the red blood cells in the bone marrow cells, 3 mL of Tris HCl (0.83% NH4Cl, pH 7.5) was added and well mixed. After centrifuging above cells, the numbers of the eukaryotic cells in the harvested bone marrow cells were counted and then immediately used for a co-culture system.
The progenitor bone and the parietal bone were aseptically ectomized from 1 to 2-day-old neonate ICR mice, washed with a phosphate butter solution (PBS) and treated with a mixed enzyme solution (of 0.2% collagenase and 0.1% dispase) sequentially (10, 10, 10, 20, 20 and 20 min), and then 3 to 6 groups of the cells which comprise lot of cells having the characteristics of the osteoblast were intensively collected and washed with a medium (a serum-free α-MEM). The washed cells were cultured in the α-MEM medium containing 10% FBS for 2 to 3 days. After subculturing, the collected cells were used for this experiment, and diluted to a concentration of 1×10^6 cells/mL for storage at −70[…].
The benzamidine derivative of the present invention was dissolved in a sterile distilled water or ethanol to dilute to a desired concentration. The final volume of the sample added to the cell culture medium was set at a ratio of 1:1000.
The bone marrow cells prepared in the above 1-1 and the osteoblast were co-cultured for osteoclast differentiation. Both the bone marrow cells (25,000 cells/cm^2) and the osteoblast (10,000 cells/cm^2) were plated in a 96-well plate using α-MEM medium containing FBS, and then cultured with the samples to be tested for 7 days. Differentiation factors, such as dexamethasone (10^−7 M) and vitamin D3 (10^−8 M), were also co-added to the medium from the first day of cultivation. The medium was changed with a fresh media containing a mixture of the samples and the differentiation factors every 2 to 3 days.
TRAP was used as a marker to measure the matured osteoclast in consideration of its characteristics showing a positive reaction to a TRAP staining solution. The TRAP staining solution was prepared in such the manner that 5 mg of naphtol AS-MS phosphate (sigma N-4875) as a substrate, and 25 mg of a coloring agent (Fast Red Violet LB salt) were dissolved in N,N-dimethylformamide (about 0.5 mL). 50 ml of a 0.1 N NaHCO3 buffer solution containing 50 mM tartaric acid (pH 5.0) was added thereto, and the mixture was stored at a refrigerator prior to use as a staining solution.
After culturing the cells for 7 days, the medium was removed from the wells, the cells were once washed with PBS, and then fixed with PBS containing 10% formalin for 2 to 5 min. The cells were fixed again in a mixed solution of ethanol and acetone (1/1) for about 1 min, and dried off. The cells were further treated by the TRAP staining solution for 15 mins and washed with water and dried off. The osteoclasts with 3 or more nuclei showing a TRAP-positive reaction were counted under a microscopic examination. Each of tests was confirmed over at least three times. The inhibitory effect on osteoclast differentiation of each experimental group, relative to negative controls, was expressed as a percentage (%).

[2] = tested on: MC3T3; assay: Cytotoxicity test (MTT), MC3T3; assay type: cell-based; settings: 10^−6M, 72 hrs, in comparison with the control group
Description: (§1) The cytotoxic effect of the benzamidine derivative of the present invention was evaluated by carrying out the experiment described below.
(§2) The test substance was diluted in an appropriate solvent at a 10^−2 M concentration. This substance was diluted in an appropriate culture medium for the cells used in the cytotoxicity test to a concentration of […], and loaded into a 96-well plate in 100 μl per well. The cell lines to be used in the cytotoxicity test were plated on a 96-well plate in a dose of 1.0×10^4 cells/1OO μl per well and cultured for 72 hrs. 25 μl of MTT [3-(4,5-dimethyl-2-thiazolyl)-2,5-diphenyl-2H-tetrazolium bromide] dissolved in PBS (2 mg/mL) were added before 4 hrs of the end of culture. After completion of the reaction, the plates were centrifuged, the medium was discarded and 100 μl of DMSO was added to dissolve formazan. Finally, the absorbance of the developed plates was measured at 540 nm. The survival rates of the cells were expressed as % concentration values in comparison with the control group.

[3] = tested on: calvaria; assay: Cytotoxicity test (MTT), calvaria; assay type: cell-based; settings: 10^−6M, 72 hrs, in comparison with the control group
Description: as §1, §2

[4] = tested on: HOS; assay: Cytotoxicity test (MTT), HOS; assay type: cell-based; settings: 10^−6M, 72 hrs, in comparison with the control group
Description: as §1, §2

| Structure (SMILES) | inhibition at 1 µM [1] | survival rates of the cells [2] | survival rates of the cells [3] | survival rates of the cells [4] | inhibitory effect on osteoclast differentiation(%) [1] |
| --- | --- | --- | --- | --- | --- |
| CN(C)CCc1sc(C2CCCCC2)nc1-c1ccc(OCCCCCOc2ccc(C(=N)NO)cc2)cc1 [Example 37, N-hydroxy-4-(5-{4-[2-cyclohexyl-5-(2-dimethylamino-ethyl)-thiazol-4-yl]-phenoxy}-pentyloxy)-benzamidine] | 100% | 94.9% | 84.7% | 116.7% |  |
| CCCN(CCC)CCc1sc(C2CCCCC2)nc1-c1ccc(OCCCCCOc2ccc(C(=N)NO)cc2)cc1 [Example 38, N-hydroxy-4-(5-{4-[2-cyclohexyl-5-(2-dipropylamino-ethyl)-thiazol-4-yl]-phenoxy}-pentyloxy)-benzamidine] | 100% | 104.7% | 94.9% | 96.2% |  |
| N=C(NO)c1ccc(OCCCCCOc2ccc(-c3nc(C4CCCCC4)sc3CCNC3CC3)cc2)cc1 [Example 39, N-hydroxy-4-(5-{4-[2-cyclohexyl-5-(2-cyclopropylamino-ethyl)-thiazol-4-yl]-phenoxy}-pentyloxy)-benzamidine] | 100% | 85.0% | 93.1% | 111.0% |  |
| N=C(NO)c1ccc(OCCCCCOc2ccc(-c3nc(N)sc3CCNCCN3CCOCC3)cc2)cc1 [Example 40, N-hydroxy-4-[5-(4-{2-amino-5-[2-(2-morpholin-4-yl-ethylamino)-ethyl]-thiazol-4-yl}-phenoxy)-pentyloxy]-benzamidine] | 24.6% | 102.2% | 99.7% | 103.2% |  |
| N=C(NO)c1ccc(OCCCCCOc2ccc(-c3nc(-c4ccccc4)sc3CCN3CCOCC3)cc2)cc1 [Example 41, N-hydroxy-4-(5-{4-[5-(2-morpholin-4-yl-ethyl)-2-phenyl-thiazol-4-yl]-phenoxy}-pentloxy)-benzamidine] |  | 85.9% | 78.6% | 78.8% | 100% |
| CCc1nc(-c2ccc(OCCCCCOc3ccc(C(=N)NO)cc3)cc2)c(CCN2CCOCC2)s1 [Example 42, N-hydroxy-4-(5-{4-[2-ethyl-5-(2-morpholin-4-yl-ethyl)-thiazol-4-yl]-phenoxy}-pentyloxy)-benzamidine] | 100% | 81.5% | 73.8% | 98.9% |  |
| CCc1nc(-c2ccc(OCCCCCOc3ccc(C(=N)NO)cc3)cc2)c(CCN2CCSCC2)s1 [Example 43, N-hydroxy-4-(5-{4-[2-ethyl-5-(2-thiomorpholin-4-yl-ethyl)-thiazol-4-yl]-phenoxy}-pentyloxy)-benzamidine] | 97.7% | 86.5% | 91.9% | 80.4% |  |
| Cc1nc(-c2ccc(OCCCCCOc3ccc(C(=N)N)cc3)cc2)c(CCN2CCOCC2)s1 [Example 46, 4-(5-{4-[2-methyl-5-(2-morpholin-4-yl-ethyl)-thiazol-4-yl]-phenoxy}-pentyloxy)-benzamidine] | 63.4% | 95.3% | 99.9% | 94.1% |  |
| CNc1nc(-c2ccc(OCCCCCOc3ccc(C(=N)NO)cc3)cc2)c(CCNCCN2CCOCC2)s1 [Example 50, N-hydroxy-4-[5-(4-{2-methylamino-5-[2-(2-morpholin-4-yl-ethylamino)-ethyl]-thiazol-4-yl}-phenoxy)-pentyloxy]-benzamidine] | 37% | 97.2% | 92.8% | 93.6% |  |
